This is an account of results in US12325694B2, “Co-crystalline form of efinaconazole and method for preparing the same” (Daebong Ls Co., Ltd., priority 2019, dated 2025).

The data set is described as follows: Stability test: HPLC purity after standing in solution at different temperatures. Conditions: Solution (10%). The format is physicochemical. As to the method:
The stabilities of the co-crystals of efinaconazole to temperature and a solution were evaluated and compared by the following experimental method.

Regarding `C=C1CCN([C@H](C)[C@](O)(Cn2cncn2)c2ccc(F)cc2F)CC1` [Efinaconazole, efinaconazole], the “HPLC (%)” value (65 °C (oven), after 1 week) is given as 99.55%; the “HPLC (%)” value (65 °C (oven), after 2 weeks) came out at 99.46%; the “HPLC (%)” value (65 °C (oven), after 4 weeks) came out at 98.47%; the “HPLC (%)” value (room temp., after 1 week) stood at 99.73%; the “HPLC (%)” value (room temp., after 2 weeks) came out at 99.61%; the “HPLC (%)” value (room temp., after 4 weeks) was found to be 99.60%. In addition, the “Related substances (%)” value is reported as 0.45% (65 °C (oven), after 1 week); 0.54% (65 °C (oven), after 2 weeks); 1.53% (65 °C (oven), after 4 weeks); 0.27% (room temp., after 1 week); 0.39% (room temp., after 2 weeks); 0.40% (room temp., after 4 weeks).
